Source: patent publication US9095138B2, “Isoxazoline insecticides” (E.I. du Pont de Nemours and Company, priority 2007, dated 2015)

Assays:
Type in all cases: in vivo
[1] = system: diamondback moth (Plutella xylostella); assay: Test A: control of diamondback moth on radish plant, foliar spray; settings: sprayed at 50 ppm; neonate larvae on radish; assessed after 6 days; replicated three times
Description: For evaluating control of diamondback moth (Plutella xylostella) the test unit consisted of a small open container with a 12-14-day-old radish plant inside. This was pre-infested with about 50 neonate larvae that were dispensed into the test unit via corn-cob grits using a bazooka inoculator. The larvae moved onto the test plant after being dispensed into the test unit.
(§1) Test compounds were formulated using a solution containing 10% acetone, 90% water and 300 ppm X-77™ Spreader Lo-Foam Formula non-ionic surfactant containing alkylarylpolyoxyethylene, free fatty acids, glycols and isopropanol (Loveland Industries, Inc. Greeley, Colo., USA). The formulated compounds were applied in 1 mL of liquid through a SUJ2 atomizer nozzle with ⅛ JJ custom body (Spraying Systems Co. Wheaton, Ill., USA) positioned 1.27 cm (0.5 inches) above the top of each test unit. All experimental compounds in these tests were sprayed at 50 ppm, and the test was replicated three times. After spraying of the formulated test compound, each test unit was allowed to dry for 1 h and then a black, screened cap was placed on top. The test units were held for 6 days in a growth chamber at 25° C. and 70% relative humidity. Plant feeding damage was then visually assessed based on foliage consumed and a pest mortality rating was also counted and calculated for each test unit.

[2] = system: fall armyworm (Spodoptera frugiperda); assay: Test B: control of fall armyworm on corn (maize) plant, foliar spray; settings: sprayed at 50 ppm; 1-day-old larvae on corn; replicated three times
Procedure: as §1
For evaluating control of fall armyworm (Spodoptera frugiperda) the test unit consisted of a small open container with a 4-5-day-old corn (maize) plant inside. This was pre-infested (using a core sampler) with 10-15 1-day-old larvae on a piece of insect diet. Test compounds were formulated and sprayed at 50 ppm as described for Test A and replicated three times. After spraying, the test units were maintained in a growth chamber and then the control efficacy was rated for each test unit as described for Test A.

[3] = system: western flower thrips (Frankliniella occidentalis); assay: Test E: control of western flower thrips on Soleil bean plant, contact and/or systemic; settings: adult thrips, assessed after 6 days, replicated three times
Procedure: as §1
For evaluating control of the western flower thrips (Frankliniella occidentalis) through contact and/or systemic means, the test unit consisted of a small open container with a 5-7 day old Soleil Bean plant inside. Test compounds were formulated and sprayed as described for Test A. All experimental compounds in these tests were sprayed at 250 or 50 ppm as noted, and the test was replicated three times. After spraying, the test units were allowed to dry for 1 hour and then 22-27 adult thrips were added to each unit and then a black, screened cap was placed on top. The test units were held for 6 days at 25° C. and 45-55% relative humidity. A mortality rating was assessed along with a plant damage rating for each test unit.

| SMILES | control efficacy (feeding damage or mortality): very good to excellent levels [1] | control efficacy (feeding damage or mortality): very good to excellent levels [2] | control efficacy (feeding damage or mortality): very good to excellent levels ([3]; sprayed at 50 ppm) | control efficacy (feeding damage or mortality): very good to excellent levels ([3]; sprayed at 250 ppm) |
| --- | --- | --- | --- | --- |
| O=C(CNC(=O)c1ccc(C2=NOC(c3cc(Cl)cc(C(F)(F)F)c3)(C(F)(F)F)C2)c2ccccc12)NCC1CC1 (stereo not drawn) [Compound 76] | 20% or less feeding damage or 80% or more mortality | 20% or less feeding damage or 80% or more mortality | 20% or less feeding damage or 80% or more mortality | 20% or less feeding damage or 80% or more mortality |
| COCCNC(=O)CNC(=O)c1ccc(C2=NOC(c3cc(Cl)cc(Cl)c3)(C(F)(F)F)C2)c2ccccc12 (stereo not drawn) [Compound 47] | 20% or less feeding damage or 80% or more mortality | 20% or less feeding damage or 80% or more mortality | 20% or less feeding damage or 80% or more mortality | 20% or less feeding damage or 80% or more mortality |
| O=C(CNC(=O)c1ccc(C2=NOC(c3cc(Cl)cc(Cl)c3)(C(F)(F)F)C2)c2ccccc12)NCC1CC1 (stereo not drawn) [Compound 44] | 20% or less feeding damage or 80% or more mortality | 20% or less feeding damage or 80% or more mortality | 20% or less feeding damage or 80% or more mortality | 20% or less feeding damage or 80% or more mortality |
| CC(=O)N(C)CCCNC(=O)c1ccc(C2=NOC(c3cc(Cl)cc(Cl)c3)(C(F)(F)F)C2)c2ccccc12 (racemic) [Compound 4] | 20% or less feeding damage or 80% or more mortality | 20% or less feeding damage or 80% or more mortality | 20% or less feeding damage or 80% or more mortality | 20% or less feeding damage or 80% or more mortality |
| CC(NC(=O)c1ccc(C2=NOC(c3cc(C(F)(F)F)cc(C(F)(F)F)c3)(C(F)(F)F)C2)c2ccccc12)C(=O)NC1CC1 (stereo not drawn) [Compound 67] | 20% or less feeding damage or 80% or more mortality | 20% or less feeding damage or 80% or more mortality | 20% or less feeding damage or 80% or more mortality | 20% or less feeding damage or 80% or more mortality |
| O=C(NCC(=O)N1CCC(F)(F)C1)c1ccc(C2=NOC(c3cc(Cl)cc(Cl)c3)(C(F)(F)F)C2)c2ccccc12 (stereo not drawn) [Compound 90] | 20% or less feeding damage or 80% or more mortality | 20% or less feeding damage or 80% or more mortality | 20% or less feeding damage or 80% or more mortality | 20% or less feeding damage or 80% or more mortality |
| O=C(CNC(=O)c1ccc(C2=NOC(c3cc(Cl)cc(OC(F)(F)F)c3)(C(F)(F)F)C2)c2ccccc12)NCC1CC1 (stereo not drawn) [Compound 81] | 20% or less feeding damage or 80% or more mortality | 20% or less feeding damage or 80% or more mortality | 20% or less feeding damage or 80% or more mortality |  |
